≈ marks a conversion by molar mass, not a printed value. Calls of active or inactive are those of the source. The rule behind the calls is not given here.
Legend:
Helicobacter pylori [1] = assay: (§1) Protection against Helicobacter pylori ATCC 43504 infected (MOI 200:1) in human GES1 cell injury model assessed as late apoptotic cells at 50 uM pre-treated for 2 hrs followed by bacterial infection measured after 6 hrs by Annexin/V-FITC staining based flow cytometry analysis (reference value: 6.28%); format: functional; settings: time 8 hrs
GES1 [2] = assay: Induction of DNA damage in human GES1 cells infected (25 to 400:1 MOI) with Helicobacter pylori ATCC 43504 assessed as increase in gammaH2AX levels at 25 to 50 uM by SP8 laser confocal microscopic analysis; format: functional, cell-based; settings: dose 25-50 µM
Helicobacter pylori [3] = assay: as §1, with “400:1)” for “200:1)”, “13.62%)” for “6.28%)”; format: functional; settings: time 8 hrs
Helicobacter pylori [4] = assay: In vivo protection against Helicobacter pylori ATCC 43504 infected in BALB/c mouse gastric mucosa model assessed as appearance of intact lamina propria at high dose administered once a day for 2 weeks by HE staining based analysis; format: functional, organism-based
[5] = Acute toxicity in BALB/c mouse assessed as change in stool color at 1 g/Kg, po single dose administered for 7 days; format: organism-based; settings: in vivo, 1000 mg/kg, 168 h, time 7 day
Helicobacter pylori [6] = assay: In vivo protection against Helicobacter pylori ATCC 43504 infected in BALB/c mouse gastric mucosa model assessed as effect on hyperplasia at high dose administered once a day for 2 weeks by HE staining based analysis; format: functional, organism-based
Helicobacter pylori [7] = assay: In vivo protection against Helicobacter pylori ATCC 43504 infected in BALB/c mouse gastric mucosa model assessed as effect on inflammatory cell infiltration at 25 mg/kg administered once a day for 2 weeks by HE staining based analysis; format: functional, organism-based
Helicobacter pylori [8] = assay: Antibacterial activity against Helicobacter pylori ATCC 43504 incubated for 24 hrs by broth dilution method; format: functional; settings: dose 1-64 […]
Helicobacter pylori [9] = assay: as §1, with “300:1)” for “200:1)”, “11.95%)” for “6.28%)”; format: functional; settings: time 8 hrs
Helicobacter pylori [10] = assay: (§2) Protection against Helicobacter pylori ATCC 43504 infected (MOI 400:1) in human GES1 cell injury model assessed as viable cells at 25 uM pre-treated for 2 hrs followed by bacterial infection measured after 6 hrs by Annexin/V-FITC staining based flow cytometry analysis (reference value: 37.61%); format: functional; settings: time 8 hrs
Helicobacter pylori [11] = assay: as §2, with “late apoptotic” for “viable”, “13.62%)” for “37.61%)”; format: functional; settings: time 8 hrs
Helicobacter pylori [12] = assay: Protection against Helicobacter pylori ATCC 43504 infected (MOI 200:1) in human GES1 cell injury model assessed as necrotic cells at 50 uM pre-treated for 2 hrs followed by bacterial infection measured after 6 hrs by Annexin/V-FITC staining based flow cytometry analysis (reference value: 3.92%); format: functional; settings: time 8 hrs
GES1 [13] = assay: Induction of DNA damage in human GES1 cells infected (25 to 400:1 MOI) with Helicobacter pylori ATCC 43504 assessed as decrease in gammaH2AX levels by measuring fluorescence intensity at 25 to 50 uM by SP8 laser confocal microscopic analysis; format: functional, cell-based; settings: dose 25-50 µM
Helicobacter pylori [14] = assay: In vivo protection against Helicobacter pylori ATCC 43504 infected in BALB/c mouse gastric mucosa model assessed as effect on pathological lesion at low dose administered once a day for 2 weeks by HE staining based analysis; format: functional, organism-based
Helicobacter pylori [15] = assay: Protection against Helicobacter pylori ATCC 43504 infected (MOI 25:1) in human GES1 cell injury model assessed as late apoptotic cells at 50 uM pre-treated for 2 hrs measured after 6 hrs by Annexin/V-FITC staining based flow cytometry analysis (reference value: 0.31%); format: functional; settings: time 8 hrs
Helicobacter pylori [16] = assay: In vivo protection against Helicobacter pylori ATCC 43504 infected in BALB/c mouse gastric mucosa model assessed as reduction in hyperplasia at 25 mg/kg administered once a day for 2 weeks by HE staining based analysis; format: functional, organism-based
GES1 [17] = assay: Induction of DNA damage in human GES1 cells infected (25 to 400:1 MOI) with Helicobacter pylori ATCC 43504 assessed as decrease in gammaH2AX levels at 50 uM by SP8 laser confocal microscopic analysis; format: functional, cell-based; settings: time 20.0 min
Helicobacter pylori [18] = assay: Protection against Helicobacter pylori ATCC 43504 infected (MOI 25:1) in human GES1 cell injury model assessed as viable cells at 25 uM pre-treated for 2 hrs measured after 6 hrs by Annexin/V-FITC staining based flow cytometry analysis (reference value: 89.14%); format: functional; settings: time 8 hrs
Helicobacter pylori [19] = assay: Protection against Helicobacter pylori ATCC 43504 infected (MOI 25:1) in human GES1 cell injury model assessed as late apoptotic cells at 25 uM pre-treated for 2 hrs followed by bacterial infection measured after 6 hrs by Annexin/V-FITC staining based flow cytometry analysis (reference value: 0.31%); format: functional; settings: time 8 hrs
GES1 [20] = assay: Induction of ROS generation in human GES1 cells infected (25 to 400:1 MOI) with Helicobacter pylori ATCC 43504 assessed as increase in fluorescence intensity at 25 to 50 uM by DCFH-DA based Immunofluorescence analysis; format: functional, cell-based; settings: dose 25-50 µM
Helicobacter pylori [21] = assay: Protection against Helicobacter pylori ATCC 43504 infected (MOI 100:1) in human GES1 cell injury model assessed as viable cells followed by bacterial infection at 25 uM pre-treated for 2 hrs measured after 6 hrs by Annexin/V-FITC staining based flow cytometry analysis (reference value: 68.36%); format: functional; settings: time 8 hrs
Helicobacter pylori [22] = assay: In vivo protection against Helicobacter pylori ATCC 43504 infected in BALB/c mouse gastric mucosa model assessed as appearance of intact muscularis mucosa at high dose administered once a day for 2 weeks by HE staining based analysis; format: functional, organism-based
Helicobacter pylori [23] = assay: Protection against Helicobacter pylori ATCC 43504 infected (MOI 100:1) in human GES1 cell injury model assessed as necrotic cells at 50 uM pre-treated for 2 hrs followed by bacterial infection measured after 6 hrs by Annexin/V-FITC staining based flow cytometry analysis (reference value: 2.82%); format: functional; settings: time 8 hrs
Helicobacter pylori [24] = assay: Protection against Helicobacter pylori ATCC 43504 infected (MOI 300:1) in human GES1 cell injury model assessed as viable cells at 25 uM pre-treated for 2 hrs followed by bacterial infection measured after 6 hrs by Annexin/V-FITC staining based flow cytometry analysis (reference value: 47.43%); format: functional; settings: time 8 hrs
Helicobacter pylori [25] = assay: Protection against Helicobacter pylori ATCC 43504 infected (MOI 100:1) in human GES1 cell injury model assessed as early apoptotic cells at 25 uM pre-treated for 2 hrs followed by bacterial infection measured after 6 hrs by Annexin/V-FITC staining based flow cytometry analysis (reference value: 24.66 %); format: functional; settings: time 8 hrs
Helicobacter pylori [26] = assay: In vivo protection against Helicobacter pylori ATCC 43504 infected in BALB/c mouse gastric mucosa model assessed as appearance of intact sub-mucosa at high dose administered once a day for 2 weeks by HE staining based analysis; format: functional, organism-based
Helicobacter pylori [27] = assay: Protection against Helicobacter pylori ATCC 43504 infected (MOI 300:1) in human GES1 cell injury model assessed as necrotic cells at 50 uM pre-treated for 2 hrs followed by bacterial infection measured after 6 hrs by Annexin/V-FITC staining based flow cytometry analysis (reference value: 6.05%); format: functional; settings: time 8 hrs
Helicobacter pylori [28] = assay: Protection against Helicobacter pylori ATCC 43504 infected (MOI 200:1) in human GES1 cell injury model assessed as viable cells at 50 uM pre-treated for 2 hrs followed by bacterial infection measured after 6 hrs by Annexin/V-FITC staining based flow cytometry analysis (reference value: 57.87%); format: functional; settings: time 8 hrs

In the case of `O=C(Oc1n[se]c2ccccc12)c1cccc(F)c1`, the Activity (Helicobacter pylori [1]) is reported as 0.21%, the Activity (GES1 [2]) is reported as “Active” and the Activity (Helicobacter pylori [3]) is reported as 0.72%. The Activity (Helicobacter pylori [4]) was “Active”, the Activity [5] was “Non-toxic” and the Activity (Helicobacter pylori [6]) was “inactive”. For the same compound, the Activity (Helicobacter pylori [7]) was “Active”, the Activity (Helicobacter pylori [8]) was “Dose-dependent-effect” and the MIC (Helicobacter pylori [8]) was 8 µg/mL (≈ 25 µM). The Activity (Helicobacter pylori [9]) was 2.53%, the Activity (Helicobacter pylori [10]) was 82.13% and the Activity (Helicobacter pylori [11]) was 0.32%. The Activity (Helicobacter pylori [12]) was 0.8%, the Activity (GES1 [13]) was “Active” and the Activity (Helicobacter pylori [14]) was “inactive”. For the same compound, the Activity (Helicobacter pylori [15]) was 0%, the Activity (Helicobacter pylori [16]) was “Active” and the Activity (GES1 [17]) was “Active”. For the same compound, the Activity (Helicobacter pylori [18]) was 98.45%, the Activity (Helicobacter pylori [19]) was 0.02% and the Activity (GES1 [20]) was “Active”. The Activity (Helicobacter pylori [21]) was 91.76%, the Activity (Helicobacter pylori [22]) was “Active” and the Activity (Helicobacter pylori [23]) was 0.16%. The Activity (Helicobacter pylori [24]) was 83.86%, the Activity (Helicobacter pylori [25]) was 7.64% and the Activity (Helicobacter pylori [26]) was “Active”. For the same compound, the Activity (Helicobacter pylori [27]) was 2.01% and the Activity (Helicobacter pylori [28]) was 94.61%.
